# Experimental data reported in patent publication US20220306617A1, “SUBSTITUTED 1,3-PHENYL HETEROARYL DERIVATIVES AND THEIR USE IN THE TREATMENT OF DISEASE” (NOVARTIS AG, priority 2019, published 2022).
# pEC50: −log10 of the molar value.
# Molecular target: T1, abc isoform of human TMEM16A channel expressed in CHO cells (Homo sapiens, UniProt Q5XXA6, DEL476-501)
# T1 construct: expressed in transfected cells; host or cells: CHO cells, doxycycline-inducible expression under Blasticidin/Zeocin selection
# T1 sequence (Q5XXA6 with tags, fused parts or gaps isoform Q5XXA6-5 DEL539-564): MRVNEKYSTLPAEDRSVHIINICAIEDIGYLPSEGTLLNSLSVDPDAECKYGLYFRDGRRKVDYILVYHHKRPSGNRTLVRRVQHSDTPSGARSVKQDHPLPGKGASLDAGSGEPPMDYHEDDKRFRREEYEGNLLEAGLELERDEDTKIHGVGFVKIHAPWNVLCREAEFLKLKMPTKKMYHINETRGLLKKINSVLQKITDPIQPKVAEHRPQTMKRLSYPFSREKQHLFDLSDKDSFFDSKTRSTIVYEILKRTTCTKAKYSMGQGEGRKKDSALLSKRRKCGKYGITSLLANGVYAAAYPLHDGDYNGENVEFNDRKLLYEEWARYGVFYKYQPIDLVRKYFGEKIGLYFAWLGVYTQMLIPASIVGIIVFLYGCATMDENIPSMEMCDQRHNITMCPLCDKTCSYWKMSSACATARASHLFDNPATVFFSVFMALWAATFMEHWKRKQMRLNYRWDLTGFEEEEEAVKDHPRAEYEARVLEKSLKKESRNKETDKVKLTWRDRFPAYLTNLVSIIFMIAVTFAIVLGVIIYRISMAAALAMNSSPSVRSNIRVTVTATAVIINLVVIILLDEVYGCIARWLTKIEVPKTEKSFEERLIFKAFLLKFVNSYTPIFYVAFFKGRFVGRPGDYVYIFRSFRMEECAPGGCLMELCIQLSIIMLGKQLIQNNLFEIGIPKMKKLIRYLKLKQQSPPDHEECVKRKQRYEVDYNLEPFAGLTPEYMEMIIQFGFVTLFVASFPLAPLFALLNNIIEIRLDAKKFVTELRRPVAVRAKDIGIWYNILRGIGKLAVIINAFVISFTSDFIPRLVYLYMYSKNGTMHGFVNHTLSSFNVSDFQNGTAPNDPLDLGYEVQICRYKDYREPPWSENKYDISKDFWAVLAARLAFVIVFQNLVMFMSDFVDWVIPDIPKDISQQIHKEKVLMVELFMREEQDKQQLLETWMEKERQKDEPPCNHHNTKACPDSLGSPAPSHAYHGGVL
# Assay: Automated patch clamping (QPatch) assay to measure TMEM16A activity in whole-cell
# Format: cell-based
# Conditions: for pEC50: CHO cells expressing human TMEM16A (abc), whole-cell automated patch clamp, Hill fit, read-out: TMEM16A QPATCH assay EC50 V3 EC50; for Emax: CHO, maximum current at highest dose relative to reference potentiator at maximal concentration (upper limit) and vehicle (lower limit), read-out: TMEM16A QPATCH assay EC50 V3 Assay Window (% TMEM16A max activation)
# Description: Automated Patch Clamping Assay to Measure TMEM16A Activity in Whole-Cell
# Chinese hamster ovary cells (CHO) cells expressing abc isoform of human TMEM16A channel (Ref) were grown in vented cell-culture flasks (Corning) containing cell culture medium (1×F-12 Ham, 10% FBS, 1% Penicillin-streptomycin, 5 μg/mL Blasticidin S HCl, 400 μg/mL Zeocin), maintained at 37° C. in an incubator with 5% C02, 95% 02 and 100% humidity. The cells were passaged every 2-3 days at 80-90% confluence by aspirating the cell culture medium, washing twice with 10 mL D-PBS then incubating with 4 mL Trypsin-EDTA for no longer than 5 minutes. Trypsin was neutralized with the addition of 32 mL growth medium to the cell suspension, the cells were counted using a viable-cell counter (Vi-CELL; Beckmann-Coulter) and new flasks were seeded at a cell density of 0.01, 0.02, or 0.05×10^6 cells per cm2 for 3, 2, or 1 day(s) growth, respectively. Cell suspension was diluted in the new 175 cm2 flask with 50 mL of growth medium. Doxycycline was used to induce the expression of TMEM16A channel protein and was added directly to the culture flask 18-24 hours in advance of assay at a final concentration of 1 μg/mL. Induced cells were washed with D-PBS and detached from their culture flasks by adding 10 mL of Detachin and incubating for 10 minutes. Once detached, 5 mL of QPatch assay medium (1×CHO-S-SFM II (Sigma), 25 mM HEPES) was added and the resultant cell suspension counted using the Vi-CELL viable cell counter. The optimal cell density for this QPatch assay is 2-5×1 06 cells/mL; re-adjusted as necessary with QPatch assay medium.
# The ion channel activity of TMEM16A (abc) expressed in CHO cells was assed using an automated patch clamp system (Qpatch, Sophion). These systems use planar patch-clamp technology to enable high-resistance, continuous whole-cell recordings from multiple cells in parallel, whilst maintaining each individual cell as an isolated experiment. First, each well was primed with intracellular and extracellular solutions described below. Cells were spun down, washed and then resuspended using extracellular solution. Intracellular solution: 130 mM N-methyl-D-glucamine, 10 mM EGTA, 20 mM CaCl2, 1 mM MgCl2, 10 mM HEPES 10, 10 mM BAPTA, 99 mM Sucrose, 2 mM Mg-ATP, pH 7.3, 320 mOsm Extracellular solution: 130 mM N-methyl-D-glucamine, 10 mM EGTA, 20 mM CaCl2, 1 mM MgCl2, 10 mM HEPES 10, 10 mM BAPTA, 99 mM Sucrose, 2 mM Mg-ATP, pH 7.3, 320 mOsm. Resuspended cells were then added to each well and suction was applied from the intracellular side in order to position a cell on the chip aperture, form a high resistance (GO) seal and achieve a whole-cell recording configuration. Following successful whole cell access, cell membranes were maintained at a voltage of −70 mV until the voltage protocol is applied. From this voltage, membranes were depolarized to +70 mV for 1500 ms, and then hyperpolarized to […] before being depolarized again from −90 to +70 mV in a continuous ramp waveform. At the end of the ramp, the membrane voltage is stepped back to −70 mV until the next waveform was applied. Compounds were dissolved at 10 mM in 100% DMSO and then diluted into extracellular solution (0.3% DMSO final) to the desired final concentration. The assay lower and upper limit were defined as follow, average amplitude (nA) of the last 3 sweeps in the vehicle addition of each cell was considered the basal current (lower limit); the average maximum current response in 3 cells for a reference potentiator at maximal concentration (upper limit). Current values for each compound concentration were then plotted against […]. EC50 curves are fitted to concentration-response data using curve-fitting functions (Hill fit) within the QPatch software. Curve fitting is constrained between the lowest concentration (vehicle-only addition) and the highest current value measured within the concentration range. […]
Structure (SMILES),pEC50,Emax [%]
"COC(=O)[C@@H](NC(=O)c1cnc(-c2cccc(-c3cc(C(=O)N[C@H](C)C4CC4)n[nH]3)c2)o1)C(C)C [Example 1.5, (S)-Methyl 2-(2-(3-(3-(((R)-1-Cyclopropylethyl)Carbamoyl)-1H-Pyrazol-5-Yl)Phenyl)Oxazole-5-Carboxamido)-3-Methylbutanoate]",7.22,98
"CCC(CC)NC(=O)c1cc(-c2cccc(-c3ncc(C(=O)N[C@@H](C)C4CC4)o3)c2)[nH]n1 [Example 1.6, (S)-N-(1-Cyclopropylethyl)-2-(3-(3-(Pentan-3-Ylcarbamoyl)-1H-Pyrazol-5-Yl)Phenyl)Oxazole-5-Carboxamide]",6.89,61
"COC(=O)[C@@H](NC(=O)c1cnc(-c2cccc(-c3cc(C(=O)N[C@@H](C)C4CC4)n[nH]3)c2)o1)C(C)C [Example 1.7, (S)-Methyl 2-(2-(3-(3-(((S)-1-Cyclopropylethyl)Carbamoyl)-1H-Pyrazol-5-yl)Phenyl)Oxazole-5-Carboxamido)-3-Methylbutanoate]",7.05,69
"C[C@H](NC(=O)c1cc(-c2cccc(-c3ncc(C(=O)N[C@H](C)C4CC4)o3)c2)[nH]n1)C1CC1 [Example 1.8, N-((R)-1-Cyclopropylethyl)-2-(3-(3-(((S)-1-Cyclopropylethyl)Carbamoyl)-1H-Pyrazol-5-Yl)Phenyl)Oxazole-5-Carboxamide]",6.77,54
"CCC(CC)NC(=O)c1cc(-c2cccc(-c3ncc(C(=O)N[C@H](C(=O)OC(C)(C)C)C(C)C)o3)c2)[nH]n1 [Example 1.9, (S)-Tert-Butyl 3-Methyl-2-(2-(3-(3-(Pentan-3-Ylcarbamoyl)-1H-Pyrazol-5-yl)Phenyl)Oxazole-5-Carboxamido)Butanoate]",7.52,146
"CCC(CC)NC(=O)c1cc(-c2cccc(-c3ncc(C(=O)NC(CC)C(C)C)o3)c2)[nH]n1 (stereo not shown) [Example 1.11, N-(2-Methylpentan-3-Yl)-2-(3-(3-(Pentan-3-Ylcarbamoyl)-1H-Pyrazol-5-yl)Phenyl)Oxazole-5-Carboxamide]",6.57,165
"CCOC(=O)[C@@H](NC(=O)c1cnc(-c2cccc(-c3cc(C(=O)NC(C4CC4)C4CC4)[nH]n3)c2)o1)C(C)C [Example 1.12, (S)-Ethyl 2-(2-(3-(5-((Dicyclopropylmethyl)Carbamoyl)-1H-Pyrazol-3-yl)Phenyl)Oxazole-5-Carboxamido)-3-Methylbutanoate]",7.70,87
"CCC(CC)NC(=O)c1cc(-c2cccc(-c3ncc(C(=O)NC(C)(C)C)o3)c2)[nH]n1 [Example 1.13, N-(Tert-Butyl)-2-(3-(3-(Pentan-3-Ylcarbamoyl)-1H-Pyrazol-5-yl)Phenyl)Oxazole-5-Carboxamide]",6.40,112

# More lines, now with the values ahead:
pEC50,Emax [%],Structure (SMILES)
6.17,111,"CCOC(=O)[C@H](CCSC)NC(=O)c1cnc(-c2cccc(-c3cc(C(=O)NC(CC)CC)n[nH]3)c2)o1 [Example 1.14, (S)-Ethyl 4-(Methylthio)-2-(2-(3-(3-(Pentan-3-Ylcarbamoyl)-1H-Pyrazol-5-yl)Phenyl)Oxazole-5-Carboxamido)Butanoate]"
6.39,100,"CCC(CC)NC(=O)c1cc(-c2cccc(-c3ncc(C(=O)N[C@H](C(=O)OC)c4ccccc4)o3)c2)[nH]n1 [Example 1.15, (S)-Methyl 2-(2-(3-(3-(Pentan-3-Ylcarbamoyl)-1H-Pyrazol-5-yl)Phenyl)Oxazole-5-Carboxamido)-2-Phenylacetate]"
6.08,100,"CCC(CC)NC(=O)c1cc(-c2cccc(-c3ncc(C(=O)N[C@@H](CC(C)C)C(=O)NCC(=O)OC(C)(C)C)o3)c2)[nH]n1 [Example 1.16, (S)-Tert-Butyl 2-(4-Methyl-2-(2-(3-(3-(Pentan-3-Ylcarbamoyl)-1 H-Pyrazol-5-yl)Phenyl)Oxazole-5-Carboxamido)Pentanamido)Acetate]"
6.24,94,"CCC(CC)NC(=O)c1cc(-c2cccc(-c3ncc(C(=O)NCc4ccc(F)cc4)o3)c2)[nH]n1 [Example 1.17, N-(4-Fluorobenzyl)-2-(3-(3-(Pentan-3-Ylcarbamoyl)-1H-Pyrazol-5-yl)Phenyl)Oxazole-5-Carboxamide]"
6.74,39,"CCC(CC)NC(=O)c1cc(-c2cccc(-c3ncc(C(=O)NCC4CCCCO4)o3)c2)[nH]n1 (stereo not shown) [Example 1.18, 2-(3-(3-(Pentan-3-Ylcarbamoyl)-1H-Pyrazol-5-Yl)Phenyl)-N-((Tetrahydro-2H-Pyran-2-Yl)Methyl)Oxazole-5-Carboxamide]"
6.89,69,"CCC(CC)NC(=O)c1cc(-c2cccc(-c3ncc(C(=O)NCc4ccccc4)o3)c2)[nH]n1 [Example 1.19, N-Benzyl-2-(3-(3-(Pentan-3-Ylcarbamoyl)-1H-Pyrazol-5-Yl)Phenyl)Oxazole-5-Carboxamide]"
6.54,112,"CCC(CC)NC(=O)c1cc(-c2cccc(-c3ncc(C(=O)NC(CC)CC)o3)c2)n[nH]1 [Example 1.20, N-(Pentan-3-Yl)-2-(3-(5-(Pentan-3-Ylcarbamoyl)-1H-Pyrazol-3-yl)Phenyl)Oxazole-5-Carboxamide]"
6.03,92,"CCC(CC)NC(=O)c1cc(-c2cccc(-c3ncc(C(=O)N[C@@H](C)c4ccccc4)o3)c2)[nH]n1 [Example 1.21, (S)-2-(3-(3-(Pentan-3-Ylcarbamoyl)-1H-Pyrazol-5-Yl)Phenyl)-N-(1-Phenylethyl)Oxazole-5-Carboxamide]"
7.52,119,"CCOC(=O)[C@@H](NC(=O)c1cnc(-c2cccc(-c3cc(C(=O)NC(CC)C(F)(F)F)[nH]n3)c2)o1)C(C)C (stereo partly drawn) [Example 1.22, (2S)-Ethyl 3-Methyl-2-(2-(3-(5-((1,1,1-Trifluorobutan-2-Yl)Carbamoyl)-1H-Pyrazol-3-Yl)Phenyl)Oxazole-5-Carboxamido)Butanoate]"
